US7786090B2, “Methods and compositions for treating and preventing neurologic disorders” (President and Fellows of Harvard College, priority 2006, dated 2010)
Square brackets hold non-standard residues; d marks the D form. Ends that are not written are not given here. Peptide text beside a SMILES is read from it. * marks the point of attachment. pS = N[C@@H](COP(=O)(O)O)C(=O)O; Cbz = O=C(OCc1ccccc1)*

Assays:
Pin1 = Pin1 (Homo sapiens, UniProt Q13526); conditions: Daum et al. 2006; cited from earlier work
Sequence of Pin1 (Q13526 whole entry, species assumed): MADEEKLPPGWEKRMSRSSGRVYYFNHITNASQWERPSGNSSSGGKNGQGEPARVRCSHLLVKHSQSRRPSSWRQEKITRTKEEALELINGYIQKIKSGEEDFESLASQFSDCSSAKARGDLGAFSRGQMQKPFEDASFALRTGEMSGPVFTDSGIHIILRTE

[1] = test system: interaction of Pin1 and JIP3; experiment: Co-immunoprecipitation of endogenous Pin1 and JIP3 in granule neurons; format: cell-based, rat; conditions: exposure of granule neurons to JNK activating stimuli
Method: Lysates from granule neurons that were kept in conditioned full medium (CM) or starved for 2 h (Starv) were immunoprecipitated using a JIP3 antibody, followed by immunoblotting for Pin1. Left panels show the expression of JIP3 and Pin1.
To determine whether the binding of Pin1 to JIP3 is regulated by an apoptotic stimulus, we measured the interaction of endogenous Pin1 and JIP3 in granule neurons that were left in full medium (conditioned medium, CM) or that were starved for two hours.

JNK signaling = JNK signaling in cerebellar granule neurons (phosphorylation of c-Jun and BIMEL); format: cell-based, rat; conditions: granule neurons treated for 5 h with 5 μM MG132
Method: FIG. 1C is a series of immunoblot photographs. Lysates of cerebellar granule neurons untreated or treated for 5 h with 5 μM MG132 were subjected to a pulldown with GST-Pin1 WW, followed by immunoblotting for BIM. Lower panels show the expression of BIMEL and phosphorylated c-Jun.
The phosphorylation of BIMEL at Ser65 triggers apoptosis specifically in neurons but not in non-neural cells. A critical regulatory post-phosphorylation event is the prolyl isomerization of proteins at sites of proline-dependent phosphorylation. A major function of Pin1 is to drive cells through mitosis in proliferating cells. Pin1 is also highly expressed in the nervous system. To assess whether Pin1 binds to Ser65-phosphorylated BIMEL in vitro, we used a GST pulldown assay. We expressed BIMEL in 293T cells alone or together with a constitutively active form of the kinase MEKK1 (MEKK1Δ), an upstream activator of JNK. Expression of MEKK1Δ results in the robust phosphorylation of BIMEL at Ser65, which is reflected by a mobility shift of BIMEL (FIG. 1A). Recombinant GST-Pin1, but not GST, specifically co-precipitated phosphorylated but not unphosphorylated BIMEL from cell lysates (FIG. 1A). […] In other experiments, we tested if a recombinant GST fusion protein containing the WW domain of Pin1 associates with BIMEL. The WW domain of Pin1 interacts specifically with phosphoSer/Thr-Pro motifs. […]

[2] = molecular target: T1, interaction of Pin1 with JIP3 (Homo sapiens, UniProt Q13526); experiment: GST-Pin1 pulldown with increasing Pintide, Pin1-JIP3 interaction; format: binding; set-up: dose or concentration left out as unconfirmed; conditions: lysates of 293T cells transfected with FLAG-JIP3, Pintide 0, 2.5, 5, 10, 25
T1 construct: made in house; FLAG-JIP3: lysate of transfected 293T cells
T1 sequence (Q13526 whole entry): as the sequence (Q13526 whole entry, species assumed) above
Method: (§1) FIG. 2G is a series of immunoblot photographs. Lysates of 293T cells transfected with FLAG-JIP3 or FLAG-BIMEL together with FLAG-MEKK1Δ were subjected to a GST-Pin1 pulldown assay in the presence of increasing amount of Pintide peptide ([…]), followed by immunoblotting for FLAG and GST. Representative immunoblots of three independent experiments are shown.
(§2) GST-pulldown assays were performed as described by Ryo et al., Mol. Cell 12: 1413-1426, 2003. Immunoprecipitations and subcellular fractionations were performed as described by Konishi et al., Science 303: 1026-1030, 2004. The postnuclear supernatant was further centrifuged at 10,000 g for 30 min to pellet the mitochondrially-enriched heavy membrane (HM) fraction. Antibodies to BIM (Stressgen); phospho65 BIM antibody (Biosource); HA, HSP60, JIP3, GST (Santa Cruz Biotechnology); FLAG (Sigma); P-c-Jun, MKK7, Pin1 (Cell Signaling); SP1, JNK (Upstate); GFP (Molecular Probes) are available commercially.
(§3) Thus, similar to BIMEL, JIP3 interacts with Pin1 in a phosphorylation-dependent manner.

[3] = molecular target: T2, interaction of Pin1 with BIMEL (Homo sapiens, UniProt Q13526); experiment: GST-Pin1 pulldown with increasing Pintide, Pin1-BIMEL interaction; format: binding; conditions: lysates of 293T cells transfected with FLAG-BIMEL and FLAG-MEKK1Δ, Pintide 0, 2.5, 5, 10, 25, 50 mM
T2 construct: made in house; FLAG-BIMEL: lysate of 293T cells co-transfected with FLAG-MEKK1Δ
T2 sequence (Q13526 whole entry): as the sequence (Q13526 whole entry, species assumed) above
Method: as §1, §2, §3

Row | Molecule | inhibition of Pin1 (Pin1) | interaction of Pin1 and JIP3 [1] | further results
1 | COc1ccc(F)cc1C(=O)C1(C)CCc2ccccc21 (racemic) [rac-9] | inhibit Pin1 |  | 
2 | OO [hydrogen peroxide] |  | led to a decrease | 
3 | CC(C)C[C@@H](C=O)NC(=O)[C@H](CC(C)C)NC(=O)[C@H](CC(C)C)NC(=O)OCc1ccccc1 [MG132] (Cbz-Leu-Leu-Leu-aldehyde) |  | led to a decrease | JNK signaling (JNK signaling): activated JNK signaling
4 | WFYpSPRLKK (WFY[pS]PRLKK) [Pintide] |  |  | disruption of the interaction of Pin1 with JIP3 [2]: disrupted the interaction of Pin1 with JIP3 and BIMEL in a dose-dependent manner; disruption of the interaction of Pin1 with BIMEL [3]: disrupted the interaction of Pin1 with JIP3 and BIMEL in a dose-dependent manner
5 | COc1ccc(F)cc1C(=O)[C@]1(C)CCc2ccccc21 [(R)-9] | inhibit Pin1 |  | 
